The test system of this test is protein deposits (i.e., lysozyme) from Group IV lenses. The test is described as follows: In vitro cleaning efficacy: removal of lysozyme deposits from soiled contact lenses. The method, then:
The formulations shown in Table 1 below were tested to evaluate the ability of the multifunctional surfactants described above to remove protein deposits (i.e., lysozyme) from Group IV lenses. The cleaning performance was compared to conventional cleaning agents. The test procedures are described below, and the cleaning results are set forth at the bottom of Table 1.
The materials and methods utilized in the evaluation were as follows: 1.311 g of monobasic sodium phosphate (monohydrate), 5.74 g of dibasic sodium phosphate (anhydrous), and 9.0 g of sodium chloride were dissolved in deionized water and the volume was brought to 1000 mL with deionized water after completely dissolving the solutes and adjusting pH (if needed). The final concentrations of sodium phosphate and sodium chloride were 0.05 M and 0.9 w/v %, respectively. The final pH was 7.4.
A 1.0-mg/mL lysozyme solution was prepared by dissolving 500 mg of lysozyme in 500-mL of phosphate buffered saline.
A lens extraction solution was prepared by mixing 1.0 mL of trifluoroacetic acid with 500-mL of acetonitrile and 500 mL of deionized water. The pH of the solution ranged from 1.5 to 2.0.
Each lens was immersed with 5 mL of lysozyme solution in a Wheaton glass sample vial. The vial was closed with a plastic snap cap and incubated in a constant temperature water bath at 37° C. for 24 hours. After incubation, the deposited lens was removed from the vial and rinsed by dipping into three consecutive beakers containing 50 mL of deionized water to remove any excess of the deposition solution. The lens was then blotted gently with a laboratory towel (Kaydry EX-L, from Kimberly-Clark). These lenses were used as a soiled lenses for the evaluation of cleaning efficacy of the test solutions.
The lens was immersed in a Wheaton glass sample vial containing 5 mL of UNISOL® 4 saline solution. The vial was closed with a plastic snap cap held secure with a metal clasp to prevent the cap from popping off during the thermal treatment. […]
Each soiled lens was soaked and shaken with 5 mL of the test solution in a scintillation vial at room temperature for 12 hours. […] The clean lenses were then subjected to the extraction procedure described below, and the amount of lysozyme present in the soaking solutions was measured with a fluorescence spectrophotometer. […]
A quantitative determination of the amount of lysozyme in the lens extract solution and lens soaking solutions was carried out by a fluorescence spectrophotometer interfaced with an autosampler and a computer. The fluorescence intensity of a 2 mL aliquot from each sample solution was measured by setting the excitation/emission wavelength at 280 nm/346 nm with excitation/emission slits of 2.5 nm/10 nm, respectively, and the sensitivity of the photomultiplier was set at 950 volts. […]

The structures appear in SMILES notation.

Turning to `CCCCCCCCCCCC(=O)N(CCN(CC(=O)[O-])CC(=O)[O-])CC(=O)[O-].[Na+].[Na+].[Na+]` [LED3A, lauroyl ethylene diaminetriacetate], the cleaning efficacy reads like this: (LED3A 0.03% in borate buffered vehicle containing 0.6% sodium citrate) 29.5%; (LED3A 0.075% in borate buffered vehicle containing 0.6% sodium citrate) 47.5%; (LED3A 0.1% in borate buffered vehicle containing 0.6% sodium citrate) 56.0%; (LED3A 0.2% in borate buffered vehicle containing 0.6% sodium citrate) 60.2%.

(Values after patent publication US6995123B2, “Use of multifunctional surface active agents to clean contact lenses” (Alcon, Inc., priority 2002, dated 2006).)
